# Source: US7166611B2, “Pharmaceutical compositions having appetite suppressant activity” (priority 1997, dated 2007)
# Key:
# young female rats = test: Oral Dose Anorectic Test, three consecutive days; type: in vivo, rat
# Experimental: Animals were allocated to treatment groups using randomisation tables. Each treatment group consisted of three animals, with 6 animals in the control group. The test sample was dosed to young female rats with body weight 100–150 g at acclimatisation, for three consecutive days. Animals were identified by means of metallic ear tags and KMnO4 skin markings for easy identification. Animals were housed individually in standard rodent polycarbonate cages, and water and powdered commercial rodent pellets were available ad libitum. Water and food intakes were measured and calculated for each day. In order to find the minimum effective dose of the test sample, five doses were tested. Treatment was by oral gavage, with the test sample suspended in potato starch.
# The test substance was compound (1), a white granular powder prepared from an extract from plant material in accordance with the invention, and the measured quantity of the test sample was mixed with prepared potato starch and dosed. Mixing with potato starch took place immediately before dosing on each day. Before withdrawal of the dosing volume for each animal, the suspensions were mixed thoroughly using a Vortex.
# A range of five doses was tested, with a control group 15 receiving only the carrier substance.
# rats = test: Bioassay of chromatographic fractions for appetite suppressant activity; type: in vivo, rat; conditions: bioassay of fractions from silica gel chromatography
# Text: The extract may be prepared from plant material such as the stems and roots of said plants of the genus Trichocaulon or of the genus Hoodia. The genus Trichocaulon and the genus Hoodia include succulent plants growing in arid regions such as are found in Southern Africa. In one application of the invention, the active appetite suppressant extract is obtained from the species Trichocaulon piliferum. The species Trichocaulon officinale may also be used to provide an active appetite suppressant extract. In another application of the invention, the active appetite suppressant extract may be obtained from the species Hoodia currorii, Hoodia gordonii or Hoodia lugardii.
# The partially purified active extract may be dissolved in methanol, and may be further fractionated by column chromatography, employing silica gel as an adsorption medium and a chloroform/30% methanol mixture as an eluent. A plurality of different fractions may be obtained, and each may be evaluated, by suitable bioassaying procedures, to determine the appetite suppressant activity thereof.
# A fraction having appetite suppressant activity may preferably be further fractionated such as by column chromatography using silica gel as an adsorption medium and a 9:1 chloroform:methanol solvent, and the resultant sub-fractions bioassayed for their appetite suppressant activity. […]
structure (smiles),measurement,setting,value
"C/C=C(\C)C(=O)O[C@@H]1CC2C(CC=C3C[C@@H](OC4CC(OC)C(OC5CC(OC)C(OC6OC(C)C(O)C(OC)C6O)C(C)O5)C(C)O4)CC[C@@]32C)[C@@]2(O)CC[C@H](C(C)=O)[C@@]12C (stereo partly drawn) [Compound (1), 3-0-[-β-D-thevetopyranosyl-(1→4)-β-D-cymaropyranosyl-(1→4)-β-D-cymaropyranosyl]-12β-0-tigloyloxy-14-hydroxy-14β-pregn-5-en-20-one]",body mass,"young female rats; 12.50 mg/kg group, oral",Actual loss in body mass
same,health of the animals,"young female rats; 6.25–50.00 mg/kg oral gavage, three consecutive days",Treatment did not affect the health of the animals
same,liver at post-mortem examination,young female rats; all dose groups 6.25–50.00 mg/kg oral,friable livers
same,mean body mass gain over the total study period,"young female rats; all dose groups 6.25–50.00 mg/kg oral, three consecutive days",significantly reduced mean body mass gain
same,Respiratory rate,young female rats; any dose group 6.25–50.00 mg/kg oral,in none of the animals in any dose group was significantly effected
same,water consumption,"young female rats; higher dose groups, oral, three consecutive days",increased water consumption
same,food intake and body mass gain,young female rats; lowest dose group 6.25 mg/kg oral,Reduced food intake and reduced body mass gain
same,appetite suppressive action,"young female rats; lowest dose tested 6,25 mg/kg oral",has appetite suppressive action
same,appetite suppressant activity,rats,found to have appetite suppressing activity
